Measurements published in the supplement of paper PMC11451515.

Tests used:
Conditions in all cases: 48 h
[1] = system: NOMO1; assay: cell viability relative to DMSO control; higher = less cytotoxic
Procedure, shortened: (§1)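 NOMO1 or SEM (500 cells/well) or P12-Ichikawa (1000 cells/well) leukemia cells were adapted for at least four passages in each medium. They were seeded in 1536-well plates (5 μl) and pin-dosed with library compounds in DMSO over an 11-point threefold series, 47 μM to 0.79 nM. CellTiter-Glo One luminescence was read after 48 h at 37°C. Viability is the per-plate percentage relative to DMSO wells, with cell-free wells as background.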

[2] = system: P12-Ichikawa; assay: as above
Procedure, shortened: as §1

[3] = system: SEM cells; assay: as above
Procedure, shortened: as §1

[4] = system: NOMO1; assay: AUC of viability dose-response curve (% viability x log10 dose units); higher = less sensitive
Procedure, shortened: (§2)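 Seeding of medium-adapted leukemia cells was at 500 or 1000 cells/well in 1536-well plates, followed by 48 h at 37°C with library compounds in DMSO at 11 threefold doses from 47 μM to 0.79 nM. CellTiter-Glo One luminescence was normalised per plate to DMSO and cell-free wells and fitted as a four-parameter log-logistic function of log10 dose. Area under the curve was integrated by trapezoidal rule, with curves exceeding full viability scaled and curves failing quality control removed.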

[5] = system: P12-Ichikawa; assay: as above
Procedure, shortened: as §2

[6] = system: SEM cells; assay: as above
Procedure, shortened: as §2

CC(=O)Oc1ccccc1C(=O)O
cell viability [%]
Conditions | [1] | [2] | [3]
HPLM + 10% dialyzed FBS, 0.000781 µM | 106 | 99.8 | 104
HPLM + 10% dialyzed FBS, 0.00234 µM | 107 | 96.4 | 99.4
HPLM + 10% dialyzed FBS, 0.00702 µM | 104 | 102 | 105
HPLM + 10% dialyzed FBS, 0.0211 µM | 105 | 93.9 | 106
HPLM + 10% dialyzed FBS, 0.0632 µM | 115 | 101 | 102
HPLM + 10% dialyzed FBS, 0.19 µM | 107 | 101 | 106
HPLM + 10% dialyzed FBS, 0.569 µM | 107 | 96.6 | 105
HPLM + 10% dialyzed FBS, 1.71 µM | 99.2 | 95.5 | 97.3
HPLM + 10% dialyzed FBS, 5.12 µM | 88 | 90.3 | 88.2
HPLM + 10% dialyzed FBS, 15.4 µM | 98.9 | 96.4 | 99.9
HPLM + 10% dialyzed FBS, 46.1 µM | 103 | 101 | 96.7
RPMI 5 mM glucose + 10% FBS, 0.000781 µM | 93.8 | 106 | 110
RPMI 5 mM glucose + 10% FBS, 0.00234 µM | 95.9 | 101 | 104
RPMI 5 mM glucose + 10% FBS, 0.00702 µM | 92.9 | 104 | 100
RPMI 5 mM glucose + 10% FBS, 0.0211 µM | 88.4 | 98.6 | 120
RPMI 5 mM glucose + 10% FBS, 0.0632 µM | 97.9 | 101 | 107
RPMI 5 mM glucose + 10% FBS, 0.19 µM | 87.4 | 86.5 | 104
RPMI 5 mM glucose + 10% FBS, 0.569 µM | 95.2 | 87.3 | 120
RPMI 5 mM glucose + 10% FBS, 1.71 µM | 106 | 105 | 111
RPMI 5 mM glucose + 10% FBS, 5.12 µM | 88.3 | 95.9 | 99.3
RPMI 5 mM glucose + 10% FBS, 15.4 µM | 101 | 96.4 | 105
RPMI 5 mM glucose + 10% FBS, 46.1 µM | 90.4 | 99.3 | 95.1
RPMI 5 mM glucose + 10% dialyzed FBS, 0.000781 µM | 97.7 | 97.2 | 102
RPMI 5 mM glucose + 10% dialyzed FBS, 0.00234 µM | 104 | 97.5 | 99.4
RPMI 5 mM glucose + 10% dialyzed FBS, 0.00702 µM | 106 | 98.7 | 109
RPMI 5 mM glucose + 10% dialyzed FBS, 0.0211 µM | 109 | 105 | 111
RPMI 5 mM glucose + 10% dialyzed FBS, 0.0632 µM | 110 | 101 | 108
RPMI 5 mM glucose + 10% dialyzed FBS, 0.19 µM | 93.4 | 93.6 | 102
RPMI 5 mM glucose + 10% dialyzed FBS, 0.569 µM | 91.8 | 89.2 | 113
RPMI 5 mM glucose + 10% dialyzed FBS, 1.71 µM | 105 | 99.6 | 108
RPMI 5 mM glucose + 10% dialyzed FBS, 5.12 µM | 88.4 | 93.2 | 108
RPMI 5 mM glucose + 10% dialyzed FBS, 15.4 µM | 94.9 | 104 | 100
RPMI 5 mM glucose + 10% dialyzed FBS, 46.1 µM | 96.6 | 103 | 111

AUC of viability dose-response curve
Conditions | [4] | [5] | [6]
HPLM + 10% dialyzed FBS | 461 | 466 | 463
RPMI 5 mM glucose + 10% FBS | 450 | 450 | 466
RPMI 5 mM glucose + 10% dialyzed FBS | 452 | 450 | 469

COC1=CC=CC2=C1C(=NC(=N2)C3=CC=CS3)NN4C(=O)\C=C(C)/C4=O
cell viability [%]
Conditions | [1] | [2] | [3]
HPLM + 10% dialyzed FBS, 0.000781 µM | 95.7 | 94.4 | 86.8
HPLM + 10% dialyzed FBS, 0.00234 µM | 103 | 98.3 | 96.3
HPLM + 10% dialyzed FBS, 0.00702 µM | 94 | 104 | 101
HPLM + 10% dialyzed FBS, 0.0211 µM | 87.7 | 92.5 | 87.5
HPLM + 10% dialyzed FBS, 0.0632 µM | 77.6 | 93.2 | 72.4
HPLM + 10% dialyzed FBS, 0.19 µM | 60.3 | 86.5 | 69.1
HPLM + 10% dialyzed FBS, 0.569 µM | 44.1 | 62.2 | 42.5
HPLM + 10% dialyzed FBS, 1.71 µM | 38.2 | 56.8 | 29.7
HPLM + 10% dialyzed FBS, 5.12 µM | 8.17 | 19.7 | 11.3
HPLM + 10% dialyzed FBS, 15.4 µM | 1.91 | 4.94 | 2.5
HPLM + 10% dialyzed FBS, 46.1 µM | 2.25 | 1.01 | 2.94
RPMI 5 mM glucose + 10% FBS, 0.000781 µM | 90 | 90.6 | 90.3
RPMI 5 mM glucose + 10% FBS, 0.00234 µM | 88.4 | 93.7 | 99
RPMI 5 mM glucose + 10% FBS, 0.00702 µM | 92.9 | 92.2 | 93.5
RPMI 5 mM glucose + 10% FBS, 0.0211 µM | 84.8 | 92.9 | 92.2
RPMI 5 mM glucose + 10% FBS, 0.0632 µM | 92.3 | 84.7 | 81.9
RPMI 5 mM glucose + 10% FBS, 0.19 µM | 78.2 | 75.4 | 75.5
RPMI 5 mM glucose + 10% FBS, 0.569 µM | 56.2 | 62.8 | 59.5
RPMI 5 mM glucose + 10% FBS, 1.71 µM | 48.2 | 59.7 | 36
RPMI 5 mM glucose + 10% FBS, 5.12 µM | 14.4 | 21.3 | 5.68
RPMI 5 mM glucose + 10% FBS, 15.4 µM | 3.32 | 4.06 | 1.13
RPMI 5 mM glucose + 10% FBS, 46.1 µM | 4.06 | 0.767 | 2.39
RPMI 5 mM glucose + 10% dialyzed FBS, 0.000781 µM | 81.1 | 87 | 87.3
RPMI 5 mM glucose + 10% dialyzed FBS, 0.00234 µM | 85.3 | 90.7 | 87.2
RPMI 5 mM glucose + 10% dialyzed FBS, 0.00702 µM | 94.5 | 94.6 | 88.5
RPMI 5 mM glucose + 10% dialyzed FBS, 0.0211 µM | 82.4 | 86.7 | 78.1
RPMI 5 mM glucose + 10% dialyzed FBS, 0.0632 µM | 74.6 | 87.8 | 76.3
RPMI 5 mM glucose + 10% dialyzed FBS, 0.19 µM | 68.8 | 74.1 | 83.1
RPMI 5 mM glucose + 10% dialyzed FBS, 0.569 µM | 50.4 | 62.3 | 57.4
RPMI 5 mM glucose + 10% dialyzed FBS, 1.71 µM | 38.9 | 54.9 | 41.3
RPMI 5 mM glucose + 10% dialyzed FBS, 5.12 µM | 16.9 | 23.7 | 5.19
RPMI 5 mM glucose + 10% dialyzed FBS, 15.4 µM | 4.27 | 3.09 | 1.14
RPMI 5 mM glucose + 10% dialyzed FBS, 46.1 µM | 2.63 | 0.857 | 2.21

AUC of viability dose-response curve
Conditions | [4] | [5] | [6]
HPLM + 10% dialyzed FBS | 269 | 318 | 264
RPMI 5 mM glucose + 10% FBS | 290 | 302 | 282
RPMI 5 mM glucose + 10% dialyzed FBS | 265 | 297 | 270

O=C(OC)[C@]12CC[C@@]3(C)[C@]4(C)CC[C@H]5[C@@](C)(C)C(=O)C(=C[C@]5(C)C4=CC(=O)[C@@H]3[C@@H]2C[C@](C)(C)CC1)C#N
cell viability [%]
Conditions | [1] | [2] | [3]
HPLM + 10% dialyzed FBS, 0.000781 µM | 95 | 100 | 92.6
HPLM + 10% dialyzed FBS, 0.00234 µM | 100 | 100 | 83.3
HPLM + 10% dialyzed FBS, 0.00702 µM | 90.6 | 96.3 | 100
HPLM + 10% dialyzed FBS, 0.0211 µM | 112 | 102 | 101
HPLM + 10% dialyzed FBS, 0.0632 µM | 110 | 104 | 104
HPLM + 10% dialyzed FBS, 0.19 µM | 94.1 | 105 | 99.7
HPLM + 10% dialyzed FBS, 0.569 µM | 113 | 99.8 | 98.1
HPLM + 10% dialyzed FBS, 1.71 µM | 96.1 | 97.5 | 107
HPLM + 10% dialyzed FBS, 5.12 µM | 110 | 99.2 | 81
HPLM + 10% dialyzed FBS, 15.4 µM | 2.47 | 2.24 | 3.9
HPLM + 10% dialyzed FBS, 46.1 µM | 2.86 | 2.66 | 4.06
RPMI 5 mM glucose + 10% FBS, 0.000781 µM | 93.9 | 92.7 | 101
RPMI 5 mM glucose + 10% FBS, 0.00234 µM | 99.8 | 96.7 | 91.8
RPMI 5 mM glucose + 10% FBS, 0.00702 µM | 89.5 | 97.1 | 112
RPMI 5 mM glucose + 10% FBS, 0.0211 µM | 82.1 | 90.3 | 94.6
RPMI 5 mM glucose + 10% FBS, 0.0632 µM | 99.2 | 109 | 110
RPMI 5 mM glucose + 10% FBS, 0.19 µM | 94.2 | 100 | 97.4
RPMI 5 mM glucose + 10% FBS, 0.569 µM | 88.9 | 107 | 101
RPMI 5 mM glucose + 10% FBS, 1.71 µM | 84.7 | 102 | 99.7
RPMI 5 mM glucose + 10% FBS, 5.12 µM | 88.6 | 97 | 109
RPMI 5 mM glucose + 10% FBS, 15.4 µM | 2.76 | 2.4 | 3.61
RPMI 5 mM glucose + 10% FBS, 46.1 µM | 2.71 | 2.78 | 4.26
RPMI 5 mM glucose + 10% dialyzed FBS, 0.000781 µM | 87.2 | 95.8 | 82
RPMI 5 mM glucose + 10% dialyzed FBS, 0.00234 µM | 92 | 93.3 | 87.2
RPMI 5 mM glucose + 10% dialyzed FBS, 0.00702 µM | 96.5 | 92.3 | 90.8
RPMI 5 mM glucose + 10% dialyzed FBS, 0.0211 µM | 96.6 | 98.3 | 92.6
RPMI 5 mM glucose + 10% dialyzed FBS, 0.0632 µM | 102 | 101 | 109
RPMI 5 mM glucose + 10% dialyzed FBS, 0.19 µM | 112 | 108 | 102
RPMI 5 mM glucose + 10% dialyzed FBS, 0.569 µM | 85 | 105 | 103
RPMI 5 mM glucose + 10% dialyzed FBS, 1.71 µM | 84.6 | 90.3 | 77.4
RPMI 5 mM glucose + 10% dialyzed FBS, 5.12 µM | 85.7 | 90.7 | 73.6
RPMI 5 mM glucose + 10% dialyzed FBS, 15.4 µM | 2.44 | 2.44 | 3.1
RPMI 5 mM glucose + 10% dialyzed FBS, 46.1 µM | 2.7 | 2.54 | 3.38

AUC of viability dose-response curve
Conditions | [4] | [5] | [6]
HPLM + 10% dialyzed FBS | 408 | 407 | 393
RPMI 5 mM glucose + 10% FBS | 372 | 404 | 408
RPMI 5 mM glucose + 10% dialyzed FBS | 381 | 396 | 370
